Source: patent US8034790B2, “Use of MDA-7 to inhibit pathogenic infectious organisms” (priority 2003, dated 2011)

B1: MDA-7: protein of 206 amino acids (SEQ ID NO: 2) encoded by mda-7 cDNA (protein, listed as Homo sapiens)
chain: MNFQQRLQSLWTLARPFCPPLLATASQMQMVVLPCLGFTLLLWSQVSGAQGQEFHFGPCQVKGVVPQKLWEAFWAVKDTMQAQDNITSARLLQQEVLQNVSDAESCYLVHTLLEFYLKTVFKNYHNRTVEVRTLKSFSTLANNFVLIVSQLQPSQENEMFSIRDSAHRRFLLFRRAFKQLDVEAALTKALGEVDILLTWMQKFYKL
B2: MDA-7 containing supernatant: MDA-7 containing supernatant from stably expressing 293-mda7 cells (protein, UniProt Q13007 52-206, looked up)
Interleukin-24: QEFHFGPCQVKGVVPQKLWEAFWAVKDTMQAQDNITSARLLQQEVLQNVSDAESCYLVHTLLEFYLKTVFKNYHNRTVEVRTLKSFSTLANNFVLIVSQLQPSQENEMFSIRDSAHRRFLLFRRAFKQLDVEAALTKALGEVDILLTWMQKFYKL
modifications: cell culture supernatant
notes: MDA-7 containing supernatant from stably expressing 293-mda7 cells
B3: BacM: MDA-7 protein made in insect cells using baculovirus vectors (protein, UniProt Q13007 52-206, looked up)
Interleukin-24: B2 Interleukin-24
modifications: insect cell expressed
notes: MDA-7 protein made in insect cells using baculovirus vectors

Columns and labels:
[1] = tested on: MDA-7 protein; assay: MDA-7 protein expression and secretion by western blot (cell lysates and supernatants); format: cell-based, human; conditions: Ad-mda7 treated H1299 cells
Description: Cell lysates ([…]) were suspended in 500 μl of Laemmli buffer with 5% 2-mercapto-ethanol (2ME) or supernatants (1:1 mixing with Laemmli buffer+2ME), were analyzed by SDS gel electrophoresis and western blot analysis. Expression of various proteins was determined by using the following primary antibodies: rabbit or mouse anti-human MDA-7 (Introgen Therapeutics, Inc), goat anti-human BiP/GRP-78, rabbit anti-human GADD34, goat anti-human PP2A, goat anti-human PERK, rabbit anti-human XBP-1 (Santa Cruz Biotechnologies, Santa Cruz, Calif.), rabbit anti-human caspase 7 and caspase-9 (Cell Signaling Technology, Beverly, Mass.). Antibodies against beta-actin, and alpha-tubulin were purchased from Sigma. Following incubation with horseradish peroxidase-labeled secondary antibody (Amersham Biosciences, Piscataway, N.J.) the proteins were visualized on enhanced chemiluminescence film (Hyperfilm, Amersham Biosciences, Piscataway, N.J.) by application of Amersham's enhanced chemiluminescence western blotting detection system. All westerns were performed 2-4 times.
H1299 cells were treated with 1000 vp/cell Ad-mda7 and the indicated concentrations of tunicamycin. Cells were harvested 24 hr later and analyzed for intracellular and secreted MDA-7 protein by western blot and apoptosis via Annexin V assay. Control cultures of cells treated with only tunicamycin were also assessed for apoptosis (Tun. Toxicity).

[2] = tested on: endostatin; assay: Endostatin secretion from Ad-endostatin treated H1299 cells; format: cell-based, human; conditions: H1299 cells treated with Ad-endostatin
Excerpt: To address whether apoptosis induction is due to intracellular MDA-7 or is simply a non-specific effect due to protein accumulation in the ER, we performed similar experiments using an adenoviral vector encoding endostatin as a control glycosylated secreted protein.

[3] = tested on: H1299 cells; assay: Cell viability / cell killing (trypan blue exclusion) in H1299 cells; format: cell-based, human; conditions: for effect on cell killing by Ad-mda7 / cytotoxicity of secretion inhibitor alone / effect on cell killing due to Ad-luc or Ad-endostatin / cell killing by MDA-7 protein applied to cells: H1299 cells; for effect on cell killing by Ad-mda7: combination of Ad-mda7 and secretion inhibitor; for cytotoxicity of secretion inhibitor alone: dose that blocks MDA-7 secretion; for effect on cell killing due to Ad-luc or Ad-endostatin: p>0.05; for cell killing by MDA-7 protein applied to cells: viability after 3 days, EM 20-100 ng/ml, BacM 100 ng/ml, supernatant 10 and 100 ng/ml
Description: Construction and purification of replication-deficient human type 5 Adenovirus (Ad5) carrying the mda-7 gene was described previously (Mhashilkar et al., 2001). Cell lines were infected with Ad-mda7 or Ad-luc with indicated MOIs. Cells were plated at 10^5-10^6 cells/well in a 6-well plate format for protein expression, trypan-blue exclusion assay or apoptosis assays. For transfection with pShooter vectors, 1 μg of plasmid DNA was used to transfect cells using lipofectamine protocol as described (Mhashilkar et al., 2003).
Cell viability was determined by trypan blue exclusion assay or Live/Dead assay. Cells were trypsinized and a small aliquot was suspended 1:1 volume with 0.1% trypan blue. Total cell numbers and cell viability counts were assessed using a hemocytometer under light microscopy. For Live/Dead assay (Molecular Probes, Eugene Oreg.) cells were plated in chamber slides (Nunc) and then treated with pShooter-plasmid vectors or with Ad− vectors. Two-four days later the cells were treated with the probes, Calcein AM and Ethidium homodimer (both at 5 uM final conc. in PBS), for 30 minutes and then live (green) and dead (red) cells were counted via fluorescence microscopy. All assays were performed at least three times.

[4] = Anti-angiogenic activity

Row | Molecule | effect on endostatin secretion [2] | effect on cell killing by Ad-mda7 [3] | cytotoxicity of secretion inhibitor alone [3] | effect on cell killing due to Ad-luc or Ad-endostatin [3] | cell killing by MDA-7 protein applied to cells [3] | further results
1 | C[C@H]1CCC/C=C/[C@@H]2C[C@H](O)C[C@H]2[C@H](O)/C=C/C(=O)O1 [BFA, Brefeldin A] | potently blocked endostatin secretion | slightly enhanced cell killing | not cytotoxic | Neither BFA nor tunicamycin significantly modulated cell killing |  | inhibition of MDA-7 secretion ([1]; 1 μg/ml BFA): completely block MDA-7 secretion; concentration required to completely block secretion of MDA-7 protein [1]: less than 1 μg/ml
2 | Tunicamycin | potently blocked endostatin secretion | slightly enhanced cell killing | not cytotoxic | Neither BFA nor tunicamycin significantly modulated cell killing |  | reduction of secreted MDA-7 ([1]; 1 μg/ml tunicamycin): > 60%; inhibition of MDA-7 secretion ([1]; 2 μg/ml tunicamycin): completely blocked secretion
3 | B1 |  |  |  |  |  | anti-angiogenic activity, potency relative to endostatin [4]: 50 fold; cell killing ([3]; H1299 cells treated with MDA-7 protein and then transduced with Ad-luc): Only background killing was observed
4 | B2 |  |  |  |  | did not induce cell death | cell death above background levels ([3]; supernatant from stably expressing 293-mda7 cells applied to H1299 cells, 10 and 100 ng/ml, 3 days): < 10%
5 | B3 |  |  |  |  | failed to induce significant killing | 
